Values of other authors as cited in patent US4866036A, “Dipeptidyl 5-0,6-0-acyl-2-amino-2-deoxy-D-glucofuranose compositions and methods of use in aids-immunocompromised human hosts” (priority 1987, dated 1989).

Key:
[1] = test system: reverse transcriptase in several retroviruses; conditions: in vitro
[2] = human, in vivo
[3] = human, in vivo; remark: listed apart in the source
[4] = molecular target: HIV reverse transcriptase (Human immunodeficiency virus type 1 group M subtype B, UniProt P04585)
[5] = in vivo

| Compound | clinical effect in AIDS or ARC patients [2] | toxicity / adverse effects in patients [3] | also measured |
| --- | --- | --- | --- |
| ammonium 21-tungsto-9 antimoniate [HPA 23] | no therapeutic benefit has been documented | – | reverse transcriptase in several retroviruses [1]: Inhibits reverse transcriptase; growth of HIV (HIV): some tendency to check the growth of HIV |
| CC(=O)Nc1ccc(C(=O)O)cc1.CC(=O)Nc1ccc(C(=O)O)cc1.CC(=O)Nc1ccc(C(=O)O)cc1.CC(O)CN(C)C.CC(O)CN(C)C.CC(O)CN(C)C.O=c1[nH]cnc2c1ncn2[C@@H]1O[C@H](CO)[C@@H](O)[C@H]1O [Inosine pranobex] | improve immune function in ARC patients | – | – |
| O=C(O)P(=O)(O)O [Foscarnet, trisodium phosphonoformate] | – | serious side effects | HIV reverse transcriptase activity [4]: Inhibits HIV reverse transcriptase activity in vitro |
| CC(C)(N1CC1C#N)N1CC1C(N)=O (centres unmarked) [Azimexon] | improvements in symptoms and immune function in patients with ARC but not AIDS | mild hemolysis | – |
| NC(=O)c1ncn([C@@H]2O[C@H](CO)[C@@H](O)[C@H]2O)n1 [Ribavirin, 1β-D ribofuranosyl 1,2,4-triazole 3-carboxamide] | inhibited viral replication and improved immune function | – | – |
| Cc1cn([C@H]2C[C@H](N=[N+]=[N-])[C@@H](CO)O2)c(=O)[nH]c1=O [Azidothymidine, 3'-azido 3'-deoxythymidine] | – | – | half-life in the body [5]: relatively short half-life; penetration of the central nervous system [5]: effectively penetrates central nervous system |
| CC(C)(S)[C@@H](N)C(=O)O [D-Penicillamine, 3-mercapto-D-valine] | suppressed the virus | temporarily depressed T cell levels | – |
| CO[C@H]1/C=C/O[C@@]2(C)Oc3c(C)c(O)c4c(c3C2=O)C2=NC3(CCN(CC(C)C)CC3)NC2=C(NC(=O)/C(C)=C\C=C\[C@H](C)[C@H](O)[C@@H](C)[C@@H](O)[C@@H](C)[C@H](OC(C)=O)[C@@H]1C)C4=O [Ansamycin, rifabutin] | some efficacy | – | – |
| Cc1ccc(C(=O)Nc2ccc(S(=O)(=O)O)c3cc(S(=O)(=O)O)cc(S(=O)(=O)O)c23)cc1NC(=O)c1cccc(NC(=O)Nc2cccc(C(=O)Nc3cc(C(=O)Nc4ccc(S(=O)(=O)O)c5cc(S(=O)(=O)O)cc(S(=O)(=O)O)c45)ccc3C)c2)c1 [Suramin] | – | – | HIV reverse transcriptase activity [4]: Potent inhibitor |
| α-Interferon | induced tumor regression in some AIDS related Kaposi's sarcoma cases | – | growth of HIV (HIV): Checks the growth of HIV in vitro |
